By Ki is commonly meant a measure of affinity in units of concentration, obtained from inhibition or displacement.

Like-named read-outs stand apart in the source and are kept apart here.

Results on 20 molecules are retold here after patent publication US8623877B2, “Substituted N-heteroaryl tetrahydro-isoquinoline derivatives, preparation and therapeutic use thereof” (Sanofi, priority 2010, dated 2014).

For experiment [1], the target named is T1, rhesus H3 (Macaca mulatta, UniProt Q865E1).
T1 construct: 445 amino acid H3 receptor; expressed in transfected cells; host or cells: Flp-In T-REx 293 Cell Line (Invitrogen), pcDNA5/FRT/TO, induced with tetracycline
T1 sequence (Q865E1 1-445): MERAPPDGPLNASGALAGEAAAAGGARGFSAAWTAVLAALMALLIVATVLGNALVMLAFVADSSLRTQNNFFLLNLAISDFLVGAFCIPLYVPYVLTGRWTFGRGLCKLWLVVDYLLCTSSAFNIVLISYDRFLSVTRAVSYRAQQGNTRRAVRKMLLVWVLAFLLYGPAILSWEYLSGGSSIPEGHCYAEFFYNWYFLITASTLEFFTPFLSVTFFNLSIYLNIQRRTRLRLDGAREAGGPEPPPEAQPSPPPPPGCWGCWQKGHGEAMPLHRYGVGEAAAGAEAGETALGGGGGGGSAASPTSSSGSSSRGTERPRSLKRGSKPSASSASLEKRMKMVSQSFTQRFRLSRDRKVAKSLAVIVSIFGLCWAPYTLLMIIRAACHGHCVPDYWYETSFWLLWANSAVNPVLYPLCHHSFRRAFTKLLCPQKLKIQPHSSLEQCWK
Description: Rhesus H3 [3H]-Methylhistamine radioligand binding assay (SPA, cell membranes). To be noted: [3H]-Methylhistamine 2 nM, Cheng-Prusoff. Also on record: species or system rhesus monkey (Macacca Mulatta). Here is the method:
(§1) Rhesus H3 membranes were prepared from the Flp-In T-REx 293 Cell Line (Invitrogen) stably transfected with pcDNA5/FRT/TO (Invitrogen) containing the rhesus monkey (Macacca Mulatta) 445 amino acid H3 receptor. (Genbank #AY231164). Stably transfected cultures were amplified in tissue culture flasks by standard tissue culture methods and induced to express rhesus H3 by exposure to 500 ng/ml tetracycline (Cellgro) for 24 hours. After induction, cells were dissociated from flasks utilizing Cell Stripper (Cellgro). Cells were centrifuged (1 K×g, 5 min) and pellet frozen in an ethanol-dry ice bath to disrupt cell membranes. Frozen cell pellet was re-suspended in 5 mM HEPES (pH 7.4, Invitrogen) at 10 ml/1000 cm2 of harvested cells. The cell suspension was drawn through an 18 gauge needle (2-3×) followed by a 23 gauge needle (2-3×) to further disrupt cell membranes. The cell suspension was centrifuged (40K×g, 30 min). Cell membrane pellet was re-suspended in 5 mM HEPES (pH 7.4, Invitrogen) at a final protein concentration of 10 mg/ml. Rhesus H3 membranes were stored under liquid nitrogen prior to use in [3H]-Methylhistamine and GTPγS radioligand binding assays.
(§2) Rhesus H3 radioligand binding assay was performed using rhesus H3 receptor membranes (prepared as described above), [3H]-Methylhistamine (Perkin Elmer) and WGA SPA beads (wheat germ agglutinin scintillation proximity assay) beads (Amersham). The assay was performed in 96-well Opti-Plates (Packard). Each reaction contained 50 μl rhesus H3 membranes (20-30 μg total protein), 50 μl WGA SPA beads (0.1 μg) and 50 μl of 83 Ci/mmol [^3H]-Methylhistamine (final concentration 2 nM) and 50 μl of tested compound. The compounds of this invention and/or vehicle were diluted with binding buffer from 10 mM DMSO stocks. Assay plates were sealed with TopSeal (Perkin Elmer) and mixed on shaker (25° C., 1 hour). Assay plates were read on TopCount scintillation counter (Packard). Results were analyzed by Hill transformation and Ki values were determined by Cheng-Prusoff equation. Similar procedure was employed to determine the binding data for rat.

The target in experiment [2] is Rat H3 (Rattus norvegicus, UniProt Q9QYN8). Description: Rat H3 radioligand binding assay (similar procedure). Here is the method:
as §2

The target of experiment [3] is T1, rhesus H3. Description: GTPγS radioligand binding assay, inhibition of rhesus H3 constitutive functional activity in cell membranes. It is filed as biochemical, rhesus monkey (Macacca Mulatta). To be noted: basal rhesus H3-mediated GTPγS binding. The procedure:
as §1
In general terms: Binding of GTPγS marks nucleotide exchange on a G protein.

Setting [4] is: rat H3, similar procedure to the rhesus binding assay, read-out: Rat H3 Binding ki.

Sequence of Rat H3 (Q9QYN8 whole entry): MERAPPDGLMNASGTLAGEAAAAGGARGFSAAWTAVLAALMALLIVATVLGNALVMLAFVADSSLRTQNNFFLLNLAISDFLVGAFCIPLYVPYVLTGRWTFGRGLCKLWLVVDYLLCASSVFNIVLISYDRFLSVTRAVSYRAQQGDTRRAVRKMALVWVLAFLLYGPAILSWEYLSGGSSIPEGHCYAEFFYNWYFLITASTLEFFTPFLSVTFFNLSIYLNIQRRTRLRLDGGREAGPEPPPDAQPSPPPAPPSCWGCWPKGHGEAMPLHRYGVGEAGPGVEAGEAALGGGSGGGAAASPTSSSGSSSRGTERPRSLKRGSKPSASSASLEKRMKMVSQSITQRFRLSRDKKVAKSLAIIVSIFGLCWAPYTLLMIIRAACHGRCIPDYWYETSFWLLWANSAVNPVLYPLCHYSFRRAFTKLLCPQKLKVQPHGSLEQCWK

Take `CNC(=O)c1ccc(N2CCc3cc(N4CC[C@H](N5CCC[C@@H]5C)C4)ccc3C2)nc1` [Example 1, N-Methyl-6-[6-((2S,3′S)-2-methyl-[1,3′]bipyrrolidinyl-1′-yl)-3,4-dihydro-1H-isoquinolin-2-yl]-nicotinamide]: the results for the Ki in experiment [1] and in experiment [2] (setting [4]) were 0.39 nM and 0.95 nM, respectively.
Consider `C[C@H]1CCCN1[C@H]1CCN(c2ccc3c(c2)CCN(c2ccc(C(F)(F)F)cn2)C3)C1` [Example 2, 6-((2S,3′S)-2-Methyl-[1,3′]bipyrrolidinyl-1′-yl)-2-(5-trifluoromethyl-pyridin-2-yl)-1,2,3,4-tetrahydro-isoquinoline], for which the inhibitory constant (Ki) in experiment [1] is 29 nM; in experiment [2] (setting [4]) it was 56 nM. Further, the “GTPγS-35 ASSAY % Inverse Agonism” value in experiment [3] is −37.4%.
For the molecule `C[C@H]1CCCN1[C@H]1CCN(c2ccc3c(c2)CCN(c2cccnc2Cl)C3)C1` [Example 3, 2-(2-Chloro-pyridin-3-yl)-6-((2S,3′S)-2-methyl-[1,3′]bipyrrolidinyl-1′-yl)-1,2,3,4-tetrahydro-isoquinoline], the Ki in experiment [1] was found to be 2.2 nM; in experiment [2] (setting [4]) it was 6.1 nM. The “GTPγS-35 ASSAY % Inverse Agonism” value in experiment [3] is listed as −14.7%.
As to `Cc1cccc(N2CCc3cc(N4CC[C@H](N5CCC[C@@H]5C)C4)ccc3C2)n1` [Example 4, 6-((2S,3′S)-2-Methyl-[1,3′]bipyrrolidinyl-1′-yl)-2-(6-methyl-pyridin-2-yl)-1,2,3,4-tetrahydro-isoquinoline], the results for the Ki in experiment [1] and in experiment [2] (setting [4]) were 0.48 nM and 0.4 nM, respectively. In addition, in experiment [3], the “GTPγS-35 ASSAY % Inverse Agonism” value is reported as −46.7%.
On the same counts, the results for `C[C@H]1CCCN1[C@H]1CCN(c2ccc3c(c2)CCN(c2cnc(Br)nc2)C3)C1` [Example 5, 2-(2-Bromo-pyrimidin-5-yl)-6-((2S,3′S)-2-methyl-[1,3′]bipyrrolidinyl-1′-yl)-1,2,3,4-tetrahydro-isoquinoline] are 24 nM, 92 nM and −36.4%.
In the case of `C[C@H]1CCCN1[C@H]1CCN(c2ccc3c(c2)CCN(c2cncnc2)C3)C1` [Example 6, 6-((2S,3′S)-2-Methyl-[1,3′]bipyrrolidinyl-1′-yl)-2-pyrimidin-5-yl-1,2,3,4-tetrahydro-isoquinoline], the inhibition constant Ki in experiment [1] turned out to be 0.98 nM; in experiment [2] (setting [4]), 1.5 nM. In addition, in experiment [3], the “GTPγS-35 ASSAY % Inverse Agonism” value is given as −48.7%.
For `C[C@H]1CCCN1[C@H]1CCN(c2ccc3c(c2)CCN(c2cnc4ccccc4c2)C3)C1` [Example 7, 3-[6-((2S,3′S)-2-Methyl-[1,3′]bipyrrolidinyl-1′-yl)-3,4-dihydro-1H-isoquinolin-2-yl]-quinoline], the Ki in experiment [1] worked out at 0.28 nM; in experiment [2] (setting [4]), 26 nM. Also, the “GTPγS-35 ASSAY % Inverse Agonism” value in experiment [3] is recorded as −32.5%.
As to `C[C@H]1CCCN1[C@H]1CCN(c2ccc3c(c2)CCN(c2nc4ccccc4o2)C3)C1` [Example 8, 2-Benzooxazol-2-yl-6-((2S,3′S)-2-methyl-[1,3′]bipyrrolidinyl-1′-yl)-1,2,3,4-tetrahydro-isoquinoline], the results for the inhibition constant (Ki) in experiment [1] and in experiment [2] (setting [4]) were 680 nM and 1200 nM, respectively. Further, in experiment [3], the “GTPγS-35 ASSAY % Inverse Agonism” value is −29.4%.
In the case of `Cc1ccc(S(=O)(=O)N2CCc3cc(N4CCc5cc(N6CC[C@H](N7CCC[C@@H]7C)C6)ccc5C4)ccc3C2)cc1` [Example 9, 6-((2S,3′S)-2-Methyl-[1,3′]bipyrrolidinyl-1′-yl)-2′-(toluene-4-sulfonyl)-3,4,1′,2′,3′,4′-hexahydro-1H-[2,6′]biisoquinolinyl], the inhibitory constant (Ki) was found to be 180 nM in experiment [1] and 380 nM in experiment [2] (setting [4]). Also, in experiment [3], the “GTPγS-35 ASSAY % Inverse Agonism” value was −13.0%.
On to `COc1cncc(N2CCc3cc(N4CC[C@H](N5CCC[C@@H]5C)C4)ccc3C2)c1` [Example 10, 2-(5-Methoxy-pyridin-3-yl)-6-((2S,3′S)-2-methyl-[1,3′]bipyrrolidinyl-1′-yl)-1,2,3,4-tetrahydro-isoquinoline], for which the Ki was determined as 0.24 nM in experiment [1] and 0.5 nM in experiment [2] (setting [4]). Besides, the “GTPγS-35 ASSAY % Inverse Agonism” value in experiment [3] is reported as −16.7%.
In the case of `Cc1cc(C(F)(F)F)cc(N2CCc3cc(N4CC[C@H](N5CCC[C@@H]5C)C4)ccc3C2)n1` [Example 11, 6-((2S,3′S)-2-Methyl-[1,3′]bipyrrolidinyl-1′-yl)-2-(6-methyl-4-trifluoromethyl-pyridin-2-yl)-1,2,3,4-tetrahydro-isoquinoline], the Ki in experiment [1] was determined as 15 nM; in experiment [2] (setting [4]), 50 nM. For the same molecule, in experiment [3], the “GTPγS-35 ASSAY % Inverse Agonism” value was −20.9%.
On the same counts, the results for `C[C@H]1CCCN1[C@H]1CCN(c2ccc3c(c2)CCN(c2ccc(F)cn2)C3)C1` [Example 12, 2-(5-Fluoro-pyridin-2-yl)-6-((2S,3′S)-2-methyl-[1,3′]bipyrrolidinyl-1′-yl)-1,2,3,4-tetrahydro-isoquinoline] are 1.3 nM, 6.1 nM and −23.3%.
In the case of `Cc1ccnc(N2CCc3cc(N4CC[C@H](N5CCC[C@@H]5C)C4)ccc3C2)c1` [Example 13, 6-((2S,3′S)-2-Methyl-[1,3′]bipyrrolidinyl-1′-yl)-2-(4-methyl-pyridin-2-yl)-1,2,3,4-tetrahydro-isoquinoline], the inhibition constant (Ki) in experiment [1] was determined as 0.58 nM; in experiment [2] (setting [4]), 1.7 nM. Moreover, the “GTPγS-35 ASSAY % Inverse Agonism” value in experiment [3] is −27.3%.
As for `C[C@H]1CCCN1[C@H]1CCN(c2ccc3c(c2)CCN(c2ncc(C(F)(F)F)cc2Cl)C3)C1` [Example 14, 2-(3-Chloro-5-trifluoromethyl-pyridin-2-yl)-6-((2S,3′S)-2-methyl-[1,3′]bipyrrolidinyl-1′-yl)-1,2,3,4-tetrahydro-isoquinoline], the Ki was found to be 35 nM in experiment [1] and 310 nM in experiment [2] (setting [4]). In experiment [3], the “GTPγS-35 ASSAY % Inverse Agonism” value is given as −18.3%.
The like results for `C[C@H]1CCCN1[C@H]1CCN(c2ccc3c(c2)CCN(c2cccc(N4CCCC4)n2)C3)C1` [Example 15, 6-((2S,3′S)-2-Methyl-[1,3′]bipyrrolidinyl-1′-yl)-2-(6-pyrrolidin-1-yl-pyridin-2-yl)-1,2,3,4-tetrahydro-isoquinoline] were, in that order, 4.8 nM, 22 nM and −13.8%.
As for `C[C@H]1CCCN1[C@H]1CCN(c2ccc3c(c2)CCN(c2ccc(Cl)cn2)C3)C1` [Example 16, 2-(5-Chloro-pyridin-2-yl)-6-((2S,3′S)-2-methyl-[1,3′]bipyrrolidinyl-1′-yl)-1,2,3,4-tetrahydro-isoquinoline], the Ki in experiment [1] came out at 4.6 nM; in experiment [2] (setting [4]), 27 nM. Further, the “GTPγS-35 ASSAY % Inverse Agonism” value in experiment [3] is listed as −21.9%.
Regarding `C[C@H]1CCCN1[C@H]1CCN(c2ccc3c(c2)CCNCC3)C1` [Example 17, 7-((2S,3′S)-2-Methyl-1,3′-bipyrrolidinyl-1′-yl)-2,3,4,5-tetrahydro-1H-3-benzazepine], the Ki in experiment [1] worked out at 1.2 nM; in experiment [2] it was 5.9 nM. In experiment [3], the “GTPγS-35 ASSAY % Inverse Agonism” value is on record as −14.7%.
On to `C[C@H]1CCCN1[C@H]1CCN(c2ccc3c(c2)CCN(c2cnc4ccccc4c2)CC3)C1` [Example 18, 7-((2S,3′S)-2-Methyl-[1,3′]bipyrrolidinyl-1′-yl)-3-quinolin-3-yl-2,3,4,5-tetrahydro-1H-benzo[d]azepine], for which the results for the inhibition constant (Ki) in experiment [1] and in experiment [2] (setting [4]) were 26 nM and 1.2 nM, respectively. Besides, the “GTPγS-35 ASSAY % Inverse Agonism” value in experiment [3] is given as −8.2%.
On the same counts, the results for `C[C@H]1CCCN1[C@H]1CCN(c2ccc3c(c2)CCN(c2ccc(C(F)(F)F)cn2)CC3)C1` [Example 19, 7-((2S,3′S)-2-Methyl-[1,3′]bipyrrolidinyl-1′-yl)-3-(5-trifluoromethyl-pyridin-2-yl)-2,3,4,5-tetrahydro-1H-benzo[d]azepine] are 25 nM, 0.93 nM and −8.9%.
For the molecule `CNC(=O)c1ccc(N2CCc3ccc(N4CC[C@H](N5CCC[C@@H]5C)C4)cc3CC2)nc1` [Example 20, N-Methyl-6-[7-((2S,3′S)-2-methyl-[1,3′]bipyrrolidinyl-1′-yl)-1,2,4,5-tetrahydro-benzo[d]azepin-3-yl]-nicotinamide], the Ki in experiment [1] stood at 10 nM; in experiment [2] (setting [4]) it was 0.27 nM. The “GTPγS-35 ASSAY % Inverse Agonism” value in experiment [3] is given as −8.4%.
